Source: PMC6679423 (International Journal of Molecular Sciences, 2019)
Marks after values point to notes of the source that are not given here.

Tests used:
[1] = system: CYP3A4; details: cited from earlier work
[2] = biological target: T1, human recombinant CYP1A1 (Homo sapiens, UniProt P04798); experiment: Vandetanib oxidation by human recombinant CYP1A1 (Supersomes); assay type: in vitro ADME
T1 construct: purchased Gentest Corp; host or cells: insect cells (baculovirus)
T1 sequence (P04798 1-512): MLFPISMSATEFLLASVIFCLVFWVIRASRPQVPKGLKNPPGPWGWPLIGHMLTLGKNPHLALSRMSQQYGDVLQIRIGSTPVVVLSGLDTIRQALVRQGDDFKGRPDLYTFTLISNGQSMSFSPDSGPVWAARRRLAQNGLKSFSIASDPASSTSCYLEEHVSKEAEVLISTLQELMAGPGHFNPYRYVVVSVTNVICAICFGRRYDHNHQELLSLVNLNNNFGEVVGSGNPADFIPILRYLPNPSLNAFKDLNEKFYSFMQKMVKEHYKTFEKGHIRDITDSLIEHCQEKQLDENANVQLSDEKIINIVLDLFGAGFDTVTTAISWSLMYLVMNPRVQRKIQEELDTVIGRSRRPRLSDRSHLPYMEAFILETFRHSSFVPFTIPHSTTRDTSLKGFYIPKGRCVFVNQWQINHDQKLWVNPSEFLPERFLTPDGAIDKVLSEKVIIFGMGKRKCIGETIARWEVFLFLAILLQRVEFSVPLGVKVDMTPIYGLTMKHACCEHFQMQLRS
Experimental: (§1) Vandetanib was from LC Laboratories (Woburn, MA, USA). Ketoconazole, NADPH, methimazol and other chemicals were all purchased from Sigma-Aldrich (St. Louis, MO, USA). The purity of all chemicals met the standards of American Chemical Society, unless noted otherwise. All animal experiments were conducted in accordance with the Regulations for the Care and Use of Laboratory Animals (311/1997, Ministry of Agriculture, Czech Republic), which follows the Declaration of Helsinki. Male Wistar rats (~125–150 g; AnLab, Czech Republic), male C57BL/6 mice ([…]; CXR Bioscience Ltd., Dundee, UK), and male New Zealand rabbits (2.5–3 kg; AnLab, Czech Republic) were employed as animal models. Animals were placed in cages in temperature- and humidity-controlled rooms, acclimatized for five days and maintained at 22 °C with a 12 h light/dark period. Standardized diet and water were provided ad libitum. Rats, mice and rabbits used to prepare microsomal fraction from untreated animals were sacrificed by cervical dislocation, livers snap-frozen in liquid nitrogen and stored at −80 °C until further processing (see below). For controls, livers of the animals were removed immediately after sacrifice, divided into small pieces (~1 g), snap-frozen in liquid nitrogen, and stored at −80 °C until isolation of microsomal fractions. Pooled microsomes were used for all in vitro experiments in the present study and prepared from 10 livers/group for all animal species following established protocols. Microsomal fractions were stored at −80 °C until analysis. Protein concentrations in the microsomal fractions were assessed using the bicinchoninic acid protein assay with bovine serum albumin as a standard. Male human hepatic microsomes (pooled sample) (sample LOT: 3043885) were from Gentest Corp. (Woburn, MA, USA). Microsomes from livers of twelve human donors were obtained from Gentest Corp. (Woburn, MA, USA) (cat. no. HG43–1, HG103, HG74, HG93, HG24, HG27, HG23, HG32, HK31, HK34, HG03, and HG42). Each human microsomal sample has been characterized for CYP, FMO and protein contents and specific CYP activities by Gentest Corp. We reanalyzed each microsomal preparation for specific CYP, NADPH:CYP reductase (POR) and FMO activities by assays described in the protocols of Gentest Corp. Our data were similar to those reported by Gentest Corp. in their specification sheets. […]

[3] = system: human hepatic microsomes; experiment: Oxidation of vandetanib by human hepatic microsomes; assay type: in vitro ADME
Description: The reaction was initiated by adding vandetanib.

[4] = system: rat hepatic microsomes; experiment: Oxidation of vandetanib by rat hepatic microsomes; assay type: in vitro ADME; details: 50 µM vandetanib, N-oxide higher
Experimental: (§2) Vandetanib was from LC Laboratories (Woburn, MA, USA). Ketoconazole, NADPH, methimazol and other chemicals were all purchased from Sigma-Aldrich (St. Louis, MO, USA). The purity of all chemicals met the standards of American Chemical Society, unless noted otherwise. All animal experiments were conducted in accordance with the Regulations for the Care and Use of Laboratory Animals (311/1997, Ministry of Agriculture, Czech Republic), which follows the Declaration of Helsinki. Male Wistar rats (~125–150 g; AnLab, Czech Republic), male C57BL/6 mice ([…]; CXR Bioscience Ltd., Dundee, UK), and male New Zealand rabbits (2.5–3 kg; AnLab, Czech Republic) were employed as animal models. Animals were placed in cages in temperature- and humidity-controlled rooms, acclimatized for five days and maintained at 22 °C with a 12 h light/dark period. Standardized diet and water were provided ad libitum. Rats, mice and rabbits used to prepare microsomal fraction from untreated animals were sacrificed by cervical dislocation, livers snap-frozen in liquid nitrogen and stored at −80 °C until further processing (see below). […] Protein concentrations in the microsomal fractions were assessed using the bicinchoninic acid protein assay with bovine serum albumin as a standard. […]

[5] = system: rabbit hepatic microsomes; experiment: Oxidation of vandetanib by rabbit hepatic microsomes; assay type: in vitro ADME; details: 50 µM vandetanib, N-oxide higher
Experimental: as §2

[6] = system: mouse hepatic microsomes; experiment: Oxidation of vandetanib by mouse hepatic microsomes; assay type: in vitro ADME; details: 50 µM vandetanib, N-oxide higher
Experimental: as §2

[7] = system: human liver microsomes; experiment: Vandetanib metabolite formation by hepatic microsomes of 12 human donors; assay type: in vitro ADME; details: detection limit < 0.002
Experimental: as §1, with “sheets. The content of CYP, specific CYP and FMO activities in each human hepatic microsomes [phenacetin-O-deethylation (CYP1A2), coumarin-7-hydroxylation (CYP2A6), (S)-mephenytoin-N-demethylase (CYP2B6), paclitaxel-6α-hydroxylation (CYP2C8), diclofenac-4’-hydroxylation (CYP2C9), (S)-mephenytoin-4′-hydroxylation (CYP2C19), bufuralol-1’-hydroxylation (CYP2D6), chlorzoxazone-6-hydroxylation (CYP2E1), testosterone-6β-hydroxylation (CYP3A4), lauric acid-12-hydroxylation (CYP4A), methyl-p-tolyl sulfide oxidase (FMO)] are shown in Table 2. Human recombinant enzymes were used in the forms of Supersomes™ and obtained from Gentest Corp. In Supersomes™ microsomal fractions were isolated from insect cells that are transfected with baculovirus constructs containing cDNA of human CYP enzymes (CYP1A1/2, 1B1, 2A6, 2B6, 2C8/9/18/19/, 2D6, 2E1, 3A4). These Supersomes™ also express NADPH:CYP oxidoreductase (POR). However, because they are microsomes (particles of broken endoplasmic reticulum), other enzymes (proteins) of the endoplasmic reticulum membrane (like NADH:cytochrome b5 reductase and cytochrome b5) are also expressed at basal levels in these Supersomes™. We also utilized Supersomes™ which over-expressed cytochrome b5, in a molar ratio of CYP to cytochrome b5 of 1 to 5. In Supersomes™ where cytochrome b5 was not over-expressed (see above) pure cytochrome b5 was added to reach a molar ratio of CYP to cytochrome b5 of 1 to 5. Reconstitution of Supersomes™ with purified cytochrome b5 was performed as described previously.” for “sheets.”

[8] = system: human hepatic microsomes; experiment: Correlation of CYP- and FMO-linked activities with vandetanib metabolite formation in human hepatic microsomes; assay type: in vitro ADME; details: 12 human liver microsomal samples; for Correlation coefficient (r) of metabolite amount with CYP2E1 activity: chlorzoxazone-6-hydroxylase
Experimental: as §1, with “sheets. The content of CYP, specific CYP and FMO activities in each human hepatic microsomes [phenacetin-O-deethylation (CYP1A2), coumarin-7-hydroxylation (CYP2A6), (S)-mephenytoin-N-demethylase (CYP2B6), paclitaxel-6α-hydroxylation (CYP2C8), diclofenac-4’-hydroxylation (CYP2C9), (S)-mephenytoin-4′-hydroxylation (CYP2C19), bufuralol-1’-hydroxylation (CYP2D6), chlorzoxazone-6-hydroxylation (CYP2E1), testosterone-6β-hydroxylation (CYP3A4), lauric acid-12-hydroxylation (CYP4A), methyl-p-tolyl sulfide oxidase (FMO)] are shown in Table 2. Human recombinant enzymes were used in the forms of Supersomes™ and obtained from Gentest Corp. In Supersomes™ microsomal fractions were isolated from insect cells that are transfected with baculovirus constructs containing cDNA of human CYP enzymes (CYP1A1/2, 1B1, 2A6, 2B6, 2C8/9/18/19/, 2D6, 2E1, 3A4). These Supersomes™ also express NADPH:CYP oxidoreductase (POR). However, because they are microsomes (particles of broken endoplasmic reticulum), other enzymes (proteins) of the endoplasmic reticulum membrane (like NADH:cytochrome b5 reductase and cytochrome b5) are also expressed at basal levels in these Supersomes™. We also utilized Supersomes™ which over-expressed cytochrome b5, in a molar ratio of CYP to cytochrome b5 of 1 to 5. In Supersomes™ where cytochrome b5 was not over-expressed (see above) pure cytochrome b5 was added to reach a molar ratio of CYP to cytochrome b5 of 1 to 5. Reconstitution of Supersomes™ with purified cytochrome b5 was performed as described previously.” for “sheets.”

[9] = system: human recombinant FMO1; experiment: Vandetanib oxidation by human recombinant FMOs (Supersomes); assay type: in vitro ADME; details: recombinant FMO1 vs FMO3
Experimental: as §2

[10] = system: human liver microsomes; experiment: Vandetanib metabolite formation by hepatic microsomes of 12 human donors; assay type: in vitro ADME; details: human hepatic microsomal sample HK23; detection limit < 0.002
[11] = system: VEGFR and EGFR; details: compared to the parent drug; cited from earlier work
[12] = biological target: CYP enzymes in human liver microsomes (Homo sapiens, UniProt P08684); experiment: Effects of inhibitors on N-desmethylvandetanib formation in human liver microsomes; details: inhibitor 50 μM equimolar to vandetanib (50 μM), 0.1 nmol microsomal CYP
Chain of CYP enzymes in human liver microsomes (P08684 2-503): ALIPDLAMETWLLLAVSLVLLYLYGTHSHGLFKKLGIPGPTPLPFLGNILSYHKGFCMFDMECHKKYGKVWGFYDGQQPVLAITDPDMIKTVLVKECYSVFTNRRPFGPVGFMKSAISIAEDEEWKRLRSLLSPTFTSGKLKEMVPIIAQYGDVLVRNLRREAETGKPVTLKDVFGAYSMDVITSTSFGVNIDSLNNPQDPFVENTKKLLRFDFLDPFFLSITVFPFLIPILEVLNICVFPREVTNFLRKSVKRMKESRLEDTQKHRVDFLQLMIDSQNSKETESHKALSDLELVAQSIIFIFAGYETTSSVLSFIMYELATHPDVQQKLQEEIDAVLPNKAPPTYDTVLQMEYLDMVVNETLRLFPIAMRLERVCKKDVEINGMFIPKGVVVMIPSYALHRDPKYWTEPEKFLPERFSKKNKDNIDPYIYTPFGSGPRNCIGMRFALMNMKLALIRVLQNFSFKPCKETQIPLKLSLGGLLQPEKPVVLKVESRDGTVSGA
Chain of CYP enzymes in human liver microsomes (P16435 2-677, further chain): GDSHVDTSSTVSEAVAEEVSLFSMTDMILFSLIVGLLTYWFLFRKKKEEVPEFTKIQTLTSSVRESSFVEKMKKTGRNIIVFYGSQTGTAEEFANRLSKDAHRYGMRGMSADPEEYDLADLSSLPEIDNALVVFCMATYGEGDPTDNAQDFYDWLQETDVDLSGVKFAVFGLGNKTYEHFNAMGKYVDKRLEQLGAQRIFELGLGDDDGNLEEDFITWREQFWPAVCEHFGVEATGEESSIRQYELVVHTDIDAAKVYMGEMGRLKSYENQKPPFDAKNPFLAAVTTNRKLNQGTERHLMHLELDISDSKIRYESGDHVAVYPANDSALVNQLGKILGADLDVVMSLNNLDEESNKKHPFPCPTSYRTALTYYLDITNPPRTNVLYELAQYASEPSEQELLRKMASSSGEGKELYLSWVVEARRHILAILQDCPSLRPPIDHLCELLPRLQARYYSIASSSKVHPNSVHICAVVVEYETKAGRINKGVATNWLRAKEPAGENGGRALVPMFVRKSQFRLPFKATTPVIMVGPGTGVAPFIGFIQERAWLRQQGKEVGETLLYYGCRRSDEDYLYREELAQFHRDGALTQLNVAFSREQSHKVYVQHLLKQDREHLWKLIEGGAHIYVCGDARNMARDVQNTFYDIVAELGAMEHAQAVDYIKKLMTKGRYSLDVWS
Experimental: After the incubations, 5 µL of 1 mM phenacetine (dissolved in methanol) was added as internal standard. The reaction was stopped by extraction with dichlormethane (2 × 1 mL).
Inhibition studies in human liver microsomes were essentially conducted as reported previously.

CCC(C)n1ncn(-c2ccc(N3CCN(c4ccc(OCC5COC(Cn6cncn6)(c6ccc(Cl)cc6Cl)O5)cc4)CC3)cc2)c1=O (stereo not shown) [itraconazol]
inhibition of the formation of N-desmethylvandetanib after vandetanib treatment [1]: almost ineffective

COc1cc2c(Nc3ccc(Br)cc3F)ncnc2cc1OCC1CCN(C)CC1 [vandetanib, N-(4-bromo-2-fluorophenyl)-6-methoxy-7-[(1-methylpiperidin-4-yl)-methoxy]-quinazolin-4-amine, reference compound]
VMax, maximal velocity of N-desmethylvandetanib formation ([2]; CYP1A1, hyperbolic kinetics): 0.76 ± 0.02 peak area/min/nmol CYP
K0.5, substrate concentration corresponding to half-maximal velocity ([2]; CYP1A1, oxidation to N-desmethylvandetanib): 35.12 ± 2.75 µM

COc1cc2c(Nc3ccc(Br)cc3F)ncnc2cc1OCC1CC[N+](C)([O-])CC1 (stereo not shown) [vandetanib-N-oxide]
vandetanib-N-oxide formed at fold lower amounts than N-desmethylvandetanib [3]: ~ 4 fold
F, fold difference between formation of N-desmethylvandetanib and vandetanib-N-oxide [4]: 4- to 8 fold
F, fold difference between formation of N-desmethylvandetanib and vandetanib-N-oxide [5]: 4- to 8 fold
F, fold difference between formation of N-desmethylvandetanib and vandetanib-N-oxide [6]: 4- to 8 fold
vandetanib-N-oxide (M2) formed ([7]; human hepatic microsomal sample HG24): 0.004 peak area/(mg protein × min)
vandetanib-N-oxide (M2) formed ([7]; human hepatic microsomal sample HG42): 0.015 peak area/(mg protein × min)
vandetanib-N-oxide (M2) formed ([7]; human hepatic microsomal sample HG74): 0.004 peak area/(mg protein × min)
vandetanib-N-oxide (M2) formed ([7]; human hepatic microsomal sample HG93): 0.112 peak area/(mg protein × min)
vandetanib-N-oxide (M2) formed ([7]; human hepatic microsomal sample HG103): 0.004 peak area/(mg protein × min)
vandetanib-N-oxide (M2) formed ([7]; human hepatic microsomal sample HK31): 0.015 peak area/(mg protein × min)
Correlation coefficient (r) of metabolite amount with POR [8]: 0.035
Correlation coefficient (r) of metabolite amount with Total CYPs [8]: 0.166
Correlation coefficient (r) of metabolite amount with CYP2C19 activity ([8]; (S)-mephenytoin-4′-hydroxylase): 0.088
Correlation coefficient (r) of metabolite amount with CYP2B6 activity ([8]; (S)-mephenytoin-N-demethylase): 0.093
Correlation coefficient (r) of metabolite amount with CYP2D6 activity ([8]; bufuralol-1′-hydroxylase): −0.343
Correlation coefficient (r) of metabolite amount with CYP2E1 activity [8]: 0.714
Correlation coefficient (r) of metabolite amount with CYP2E1 activity ([8]; listed as M2): 0.714 **
Correlation coefficient (r) of metabolite amount with CYP2A6 activity ([8]; coumarine-7-hydroxylase): −0.339
Correlation coefficient (r) of metabolite amount with CYP2C9 activity ([8]; diclofenac-4′-hydroxylase): −0.039
Correlation coefficient (r) of metabolite amount with FMO activity ([8]; methyl-p-tolyl sulfide oxidase, listed as M2): 0.736 **
Correlation coefficient (r) of metabolite amount with CYP2C8 activity ([8]; paclitaxel-6α-hydroxylase): 0.288
Correlation coefficient (r) of metabolite amount with CYP1A2 activity ([8]; phenacetin-O-deethylase): −0.157
Correlation coefficient (r) of metabolite amount with CYP3A4 activity ([8]; testosterone-6β-hydroxylase): −0.200
efficiency of FMO1 to form vandetanib-N-oxide relative to FMO3 [9]: over 5 times
vandetanib-N-oxide (M2) formed [10]: 0.008 peak area/(mg protein × min)
pharmacological activity relative to vandetanib (fold less active) [11]: more than 50 fold

O=c1cc(-c2ccccc2)oc2c1ccc1ccccc12 [α-Napththoflavone, α-naphthoflavone]
% of Inhibition, N-Desmethyvandetanib Formation [12]: 0%
% of Inhibition, N-Desmethyvandetanib Formation ([12]; listed as α-NF): no inhibitory effects
